Measurements as given in patent publication US8952024B2, “Herbicidal pyrimidone derivatives” (E I du Pont de Nemours and Company, priority 2009, dated 2015).

How the values were obtained:
Experiment in all cases: Test B pre-/postemergence plant response
Format in all cases: in vivo
[1] = system: blackgrass (Alopecurus myosuroides); conditions: for Blackgrass plant response rating (0 to 100 scale): 62 g ai/ha, postemergence, 0 is no effect, 100 is complete control; for Plant response rating, Blackgrass: Postemergence
Summary of the method: (§1)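 Visually scored on a 0 to 100 scale after 13 to 15 days in greenhouse versus controls. Treatments were preemergence on seeded loam/sand soil and postemergence on 1- to 4-leaf plants.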

[2] = system: woolly cupgrass (Eriochloa villosa); conditions: for Cupgrass, Woolly plant response rating (0 to 100 scale): 62 g ai/ha, postemergence, 0 is no effect, 100 is complete control; for Plant response rating, Cupgrass, Woolly: Postemergence
Summary of the method: as §1

[3] = system: Italian ryegrass (Lolium multiflorum); conditions: for Ryegrass, Italian plant response rating (0 to 100 scale): 62 g ai/ha, postemergence, 0 is no effect, 100 is complete control; for Plant response rating, Ryegrass, Italian: Postemergence
Summary of the method: as §1

[4] = system: downy bromegrass (Bromus tectorum); conditions: for Bromegrass, Downy plant response rating (0 to 100 scale): 62 g ai/ha, postemergence, 0 is no effect, 100 is complete control; for Plant response rating, Bromegrass, Downy: Postemergence
Summary of the method: as §1

[5] = system: green foxtail (Setaria viridis); conditions: for Foxtail, Green plant response rating (0 to 100 scale): 62 g ai/ha, postemergence, 0 is no effect, 100 is complete control; for Plant response rating, Foxtail, Green: Postemergence
Summary of the method: as §1

[6] = system: Surinam grass (Brachiaria decumbens); conditions: for Surinam Grass plant response rating (0 to 100 scale): 62 g ai/ha, postemergence, 0 is no effect, 100 is complete control; for Plant response rating, Surinam Grass: Postemergence
Summary of the method: as §1

[7] = system: lambsquarters (Chenopodium album); conditions: for Lambsquarters plant response rating (0 to 100 scale): 62 g ai/ha, postemergence, 0 is no effect, 100 is complete control; for Plant response rating, Lambsquarters: Postemergence
Summary of the method: as §1

[8] = system: morningglory (Ipomoea coccinea); conditions: for Morningglory plant response rating (0 to 100 scale): 62 g ai/ha, postemergence, 0 is no effect, 100 is complete control; for Plant response rating, Morningglory: Postemergence
Summary of the method: as §1

[9] = system: giant foxtail (Setaria faberii); conditions: for Foxtail, Giant plant response rating (0 to 100 scale): 62 g ai/ha, postemergence, 0 is no effect, 100 is complete control; for Plant response rating, Foxtail, Giant: Postemergence
Summary of the method: as §1

[10] = system: large crabgrass (Digitaria sanguinalis); conditions: for Crabgrass, Large plant response rating (0 to 100 scale): 62 g ai/ha, postemergence, 0 is no effect, 100 is complete control; for Plant response rating, Crabgrass, Large: Postemergence
Summary of the method: as §1

[11] = system: yellow nutsedge (Cyperus esculentus); conditions: for Nutsedge, Yellow plant response rating (0 to 100 scale): 62 g ai/ha, postemergence, 0 is no effect, 100 is complete control; for Plant response rating, Nutsedge, Yellow: Postemergence
Summary of the method: as §1

[12] = system: bermudagrass (Cynodon dactylon); conditions: for Bermudagrass plant response rating (0 to 100 scale): 62 g ai/ha, postemergence, 0 is no effect, 100 is complete control; for Plant response rating, Bermudagrass: Postemergence
Summary of the method: as §1

corn (Zea mays) = conditions: for Corn plant response rating (0 to 100 scale): 62 g ai/ha, postemergence, 0 is no effect, 100 is complete control; for Plant response rating, Corn: Postemergence
Summary of the method: as §1

[13] = 31 g ai/ha, 0 to 100 scale (0 no effect, 100 complete control)
[14] = 125 g ai/ha, scale 0 to 100 (0 no effect, 100 complete control)
[15] = 250 g ai/ha, scale 0 to 100 (0 no effect, 100 complete control), 13 to 15 days

CCCn1c(-c2cc(F)cc(F)c2)ncc(C(=O)C2=C(O)CCCC2=O)c1=O [Compound 152]
Blackgrass plant response rating (0 to 100 scale) ([1]; 13 to 15 days): 35
Plant response rating, Blackgrass [1, 13]: 20
Plant response rating, Blackgrass [1, 14]: 55
Plant response rating, Blackgrass [1, 15]: 70
Cupgrass, Woolly plant response rating (0 to 100 scale) ([2]; 13 to 15 days): 98
Plant response rating, Cupgrass, Woolly [2, 13]: 95
Plant response rating, Cupgrass, Woolly [2, 14]: 98
Plant response rating, Cupgrass, Woolly [2, 15]: 100
Ryegrass, Italian plant response rating (0 to 100 scale) ([3]; 13 to 15 days): 30
Plant response rating, Ryegrass, Italian [3, 13]: 5
Plant response rating, Ryegrass, Italian [3, 14]: 45
Plant response rating, Ryegrass, Italian [3, 15]: 80
Bromegrass, Downy plant response rating (0 to 100 scale) ([4]; 13 to 15 days): 55
Plant response rating, Bromegrass, Downy [4, 13]: 30
Plant response rating, Bromegrass, Downy [4, 14]: 60
Plant response rating, Bromegrass, Downy [4, 15]: 85
Foxtail, Green plant response rating (0 to 100 scale) ([5]; 13 to 15 days): 75
Plant response rating, Foxtail, Green [5, 13]: 75
Plant response rating, Foxtail, Green [5, 14]: 98
Plant response rating, Foxtail, Green [5, 15]: 100
Surinam Grass plant response rating (0 to 100 scale) ([6]; 13 to 15 days): 85
Plant response rating, Surinam Grass [6, 13]: 75
Plant response rating, Surinam Grass [6, 14]: 90
Plant response rating, Surinam Grass [6, 15]: 95
Lambsquarters plant response rating (0 to 100 scale) ([7]; 13 to 15 days): 95
Plant response rating, Lambsquarters [7, 13]: 85
Plant response rating, Lambsquarters [7, 14]: 98
Plant response rating, Lambsquarters [7, 15]: 100
Morningglory plant response rating (0 to 100 scale) ([8]; 13 to 15 days): 75
Plant response rating, Morningglory [8, 13]: 45
Plant response rating, Morningglory [8, 14]: 75
Plant response rating, Morningglory [8, 15]: 95
Foxtail, Giant plant response rating (0 to 100 scale) ([9]; 13 to 15 days): 85
Plant response rating, Foxtail, Giant [9, 13]: 80
Plant response rating, Foxtail, Giant [9, 14]: 95
Plant response rating, Foxtail, Giant [9, 15]: 98
Crabgrass, Large plant response rating (0 to 100 scale) ([10]; 13 to 15 days): 85
Plant response rating, Crabgrass, Large [10, 13]: 75
Plant response rating, Crabgrass, Large [10, 14]: 95
Plant response rating, Crabgrass, Large [10, 15]: 95
Nutsedge, Yellow plant response rating (0 to 100 scale) ([11]; 13 to 15 days): 75
Plant response rating, Nutsedge, Yellow [11, 13]: 65
Plant response rating, Nutsedge, Yellow [11, 14]: 80
Plant response rating, Nutsedge, Yellow [11, 15]: 80
Bermudagrass plant response rating (0 to 100 scale) ([12]; 13 to 15 days): 95
Plant response rating, Bermudagrass [12, 13]: 95
Plant response rating, Bermudagrass [12, 14]: 98
Plant response rating, Bermudagrass [12, 15]: 98
Corn plant response rating (0 to 100 scale) (corn (Zea mays); 13 to 15 days): 45
Plant response rating, Corn (corn (Zea mays); [13]): 25
Plant response rating, Corn (corn (Zea mays); [14]): 65
Plant response rating, Corn (corn (Zea mays); [15]): 80

CCCn1c(-c2cccc(C(F)(F)F)c2)ncc(C(=O)C2=C(O)CCCC2=O)c1=O [Compound 155]
Blackgrass plant response rating (0 to 100 scale) ([1]; 13 to 15 days): 35
Plant response rating, Blackgrass [1, 13]: 10
Plant response rating, Blackgrass [1, 14]: 60
Plant response rating, Blackgrass [1, 15]: 65
Cupgrass, Woolly plant response rating (0 to 100 scale) ([2]; 13 to 15 days): 45
Plant response rating, Cupgrass, Woolly [2, 13]: 20
Plant response rating, Cupgrass, Woolly [2, 14]: 65
Plant response rating, Cupgrass, Woolly [2, 15]: 75
Ryegrass, Italian plant response rating (0 to 100 scale) ([3]; 13 to 15 days): 30
Plant response rating, Ryegrass, Italian [3, 13]: 5
Plant response rating, Ryegrass, Italian [3, 14]: 40
Plant response rating, Ryegrass, Italian [3, 15]: 60
Bromegrass, Downy plant response rating (0 to 100 scale) ([4]; 13 to 15 days): 30
Plant response rating, Bromegrass, Downy [4, 13]: 5
Plant response rating, Bromegrass, Downy [4, 14]: 35
Plant response rating, Bromegrass, Downy [4, 15]: 50
Foxtail, Green plant response rating (0 to 100 scale) ([5]; 13 to 15 days): 50
Plant response rating, Foxtail, Green [5, 13]: 25
Plant response rating, Foxtail, Green [5, 14]: 80
Plant response rating, Foxtail, Green [5, 15]: 80
Surinam Grass plant response rating (0 to 100 scale) ([6]; 13 to 15 days): 55
Plant response rating, Surinam Grass [6, 13]: 40
Plant response rating, Surinam Grass [6, 14]: 65
Plant response rating, Surinam Grass [6, 15]: 75
Lambsquarters plant response rating (0 to 100 scale) ([7]; 13 to 15 days): 100
Plant response rating, Lambsquarters [7, 13]: 98
Plant response rating, Lambsquarters [7, 14]: 100
Plant response rating, Lambsquarters [7, 15]: 100
Morningglory plant response rating (0 to 100 scale) ([8]; 13 to 15 days): 85
Plant response rating, Morningglory [8, 13]: 55
Plant response rating, Morningglory [8, 14]: 100
Plant response rating, Morningglory [8, 15]: 100
Foxtail, Giant plant response rating (0 to 100 scale) ([9]; 13 to 15 days): 80
Plant response rating, Foxtail, Giant [9, 13]: 65
Plant response rating, Foxtail, Giant [9, 14]: 90
Plant response rating, Foxtail, Giant [9, 15]: 95
Crabgrass, Large plant response rating (0 to 100 scale) ([10]; 13 to 15 days): 75
Plant response rating, Crabgrass, Large [10, 13]: 60
Plant response rating, Crabgrass, Large [10, 14]: 80
Plant response rating, Crabgrass, Large [10, 15]: 90
Nutsedge, Yellow plant response rating (0 to 100 scale) ([11]; 13 to 15 days): 45
Plant response rating, Nutsedge, Yellow [11, 13]: 20
Plant response rating, Nutsedge, Yellow [11, 14]: 70
Plant response rating, Nutsedge, Yellow [11, 15]: 75
Bermudagrass plant response rating (0 to 100 scale) ([12]; 13 to 15 days): 98
Plant response rating, Bermudagrass [12, 13]: 85
Plant response rating, Bermudagrass [12, 14]: 98
Plant response rating, Bermudagrass [12, 15]: 100
Corn plant response rating (0 to 100 scale) (corn (Zea mays); 13 to 15 days): 25
Plant response rating, Corn (corn (Zea mays); [13]): 5
Plant response rating, Corn (corn (Zea mays); [14]): 40
Plant response rating, Corn (corn (Zea mays); [15]): 65

CCCn1c(-c2cc(C)cc(C)c2)ncc(C(=O)C2=C(O)CCCC2=O)c1=O [Compound 156]
Blackgrass plant response rating (0 to 100 scale) ([1]; 13 to 15 days): 5
Plant response rating, Blackgrass [1, 13]: 5
Plant response rating, Blackgrass [1, 14]: 35
Plant response rating, Blackgrass [1, 15]: 50
Plant response rating, Cupgrass, Woolly [2, 13]: 40
Plant response rating, Cupgrass, Woolly [2, 14]: 55
Plant response rating, Cupgrass, Woolly [2, 15]: 65
Plant response rating, Ryegrass, Italian [3, 13]: 0
Plant response rating, Ryegrass, Italian [3, 14]: 20
Plant response rating, Ryegrass, Italian [3, 15]: 40
Bromegrass, Downy plant response rating (0 to 100 scale) ([4]; 13 to 15 days): 10
Plant response rating, Bromegrass, Downy [4, 13]: 10
Plant response rating, Bromegrass, Downy [4, 14]: 35
Plant response rating, Bromegrass, Downy [4, 15]: 40
Plant response rating, Foxtail, Green [5, 13]: 45
Plant response rating, Foxtail, Green [5, 14]: 85
Plant response rating, Foxtail, Green [5, 15]: 85
Plant response rating, Surinam Grass [6, 13]: 40
Plant response rating, Surinam Grass [6, 14]: 60
Plant response rating, Surinam Grass [6, 15]: 70
Plant response rating, Lambsquarters [7, 13]: 80
Plant response rating, Lambsquarters [7, 14]: 95
Plant response rating, Lambsquarters [7, 15]: 100
Plant response rating, Morningglory [8, 13]: 80
Plant response rating, Morningglory [8, 14]: 100
Plant response rating, Morningglory [8, 15]: 100
Plant response rating, Foxtail, Giant [9, 13]: 75
Plant response rating, Foxtail, Giant [9, 14]: 85
Plant response rating, Foxtail, Giant [9, 15]: 90
Plant response rating, Crabgrass, Large [10, 13]: 45
Plant response rating, Crabgrass, Large [10, 14]: 65
Plant response rating, Crabgrass, Large [10, 15]: 80
Plant response rating, Nutsedge, Yellow [11, 13]: 45
Plant response rating, Nutsedge, Yellow [11, 14]: 70
Plant response rating, Nutsedge, Yellow [11, 15]: 75
Bermudagrass plant response rating (0 to 100 scale) ([12]; 13 to 15 days): 90
Plant response rating, Bermudagrass [12, 13]: 80
Plant response rating, Bermudagrass [12, 14]: 95
Plant response rating, Bermudagrass [12, 15]: 98
Plant response rating, Corn (corn (Zea mays); [13]): 10
Plant response rating, Corn (corn (Zea mays); [14]): 45
Plant response rating, Corn (corn (Zea mays); [15]): 60
